Data set [1] deals with T1, hASIC1a (Homo sapiens, UniProt P78348).
T1 sequence (P78348 1-528): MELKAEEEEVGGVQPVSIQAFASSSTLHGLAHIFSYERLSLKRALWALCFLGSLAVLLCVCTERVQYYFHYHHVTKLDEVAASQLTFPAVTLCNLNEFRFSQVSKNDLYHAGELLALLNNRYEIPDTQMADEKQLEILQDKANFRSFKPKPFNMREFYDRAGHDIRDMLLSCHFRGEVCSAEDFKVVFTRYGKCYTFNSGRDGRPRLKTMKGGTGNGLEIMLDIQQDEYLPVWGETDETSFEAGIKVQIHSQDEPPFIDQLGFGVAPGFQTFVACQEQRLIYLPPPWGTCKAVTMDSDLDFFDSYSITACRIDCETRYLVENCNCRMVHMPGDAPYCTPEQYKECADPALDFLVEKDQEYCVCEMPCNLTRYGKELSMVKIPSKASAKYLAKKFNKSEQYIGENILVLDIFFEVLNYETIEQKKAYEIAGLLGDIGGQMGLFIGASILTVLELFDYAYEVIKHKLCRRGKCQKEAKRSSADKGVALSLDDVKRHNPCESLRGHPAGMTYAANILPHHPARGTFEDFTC
Kind of data set: Whole-cell patch clamp of HEK293 cells expressing homomeric hASIC1a. It is filed as cell-based. Also on record: expressed in transfected cells; host or cells: HEK293. Conditions: 10 μM, HEK293, -60 mV, pH 7.4 to pH 6.5 for 5 sec, n=3. As for the experimental part:
(§1) HEK293 cells were transfected either with hASIC1a alone or co-transfected with hASIC1a and hASIC3. Acid-induced inward currents were recorded in the presence and absence of compound A (10 μM) using the whole-cell configuration of the patch-clamp method (voltage clamp mode).
(§2) All experiments are performed at room temperature (20-25° C.) in voltage clamp using conventional whole cell patch clamp methods (Neher, E., et al. (1978) Pfluegers Arch 375:219-228).
(§3) Coverslips with the cells are transferred to a 15 μl experimental chamber mounted on the stage of an inverted microscope (IMT-2, Olympus) supplied with Nomarski optics. […] The cells are held at a holding voltage of −60 mV and at the start of each experiment the current is continuously measured for 45 s to ensure a stable baseline. […] Current amplitudes are measured at the peak of the responses, and effect of the compounds is calculated as the amplitude at compound equilibrium divided by the amplitude of the current evoked by the pulse just before the compound was included. […]
(§4) FIGS. 4A and 4B show response to acidic saline in the absence or presence of 10 μM of Compound A recorded from HEK293 cells expressing either hASIC1a alone or HEK293 cells co-expressing hASIC1a and hASIC3 [voltage clamped at −60 mV, extracellular solution surrounding cells was changed rapidly from pH 7.4 to pH 6.5 for 5 sec] […]
(In general: Patch clamp records ionic current or voltage across a cell membrane.)

The target in another data set is T2, heteromeric hASIC1a+3 (Homo sapiens, UniProt P78348+Q9UHC3).
T2 sequence (P78348 1-528): T1 sequence (P78348 1-528)
T2 sequence (Q9UHC3 1-531): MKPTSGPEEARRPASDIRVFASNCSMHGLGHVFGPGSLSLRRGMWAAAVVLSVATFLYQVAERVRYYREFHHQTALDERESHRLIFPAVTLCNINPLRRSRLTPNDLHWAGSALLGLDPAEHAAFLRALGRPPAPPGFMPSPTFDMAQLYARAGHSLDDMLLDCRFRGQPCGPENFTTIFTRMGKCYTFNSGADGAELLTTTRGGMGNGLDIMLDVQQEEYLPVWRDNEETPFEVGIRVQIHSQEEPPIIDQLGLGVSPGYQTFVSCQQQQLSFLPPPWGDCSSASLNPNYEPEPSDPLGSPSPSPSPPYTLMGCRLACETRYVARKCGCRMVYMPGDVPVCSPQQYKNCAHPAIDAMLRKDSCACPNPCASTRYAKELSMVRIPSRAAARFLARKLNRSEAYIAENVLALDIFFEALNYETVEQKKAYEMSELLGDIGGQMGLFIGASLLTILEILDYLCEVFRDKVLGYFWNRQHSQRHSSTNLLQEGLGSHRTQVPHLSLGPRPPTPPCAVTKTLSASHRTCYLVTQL
Kind of data set: Whole-cell patch clamp of HEK293 cells co-expressing hASIC1a and hASIC3. The following applies: 10 μM, HEK293, -60 mV, pH 7.4 to pH 6.5 for 5 sec, n=3. Also on record: expressed in transfected cells; host or cells: HEK293. It is filed as cell-based. As for the experimental part: as §1, §2, §3, §4

The nature of data set [2]: Plasma level after administration in the formalin experiments. Conditions: plasma level 1.5 h after compound administration, i.p., rat. It is filed as in vivo.
The target in data set [3] is T1, hASIC1a. Kind of data set: Whole-cell voltage clamp of pH-evoked response of human ASIC1a stably transfected in CHO cells. In kind it is cell-based. More on the design: expressed in transfected cells. The following applies: CHO cells. As for the experimental part: FIG. 3 illustrates the inhibitory effect of Compound A on acid-evoked activation of human ASIC1a stably transfected in CHO cells. […] In this example, the size of the pH-evoked response was determined by measuring the area under the curve of the response (total charge transfer) and normalized to the control response. FIG. 3B depicts an example of an hASIC1a current (whole cell voltage clamp, −60 mV) evoked by a pH 6.8-buffered solution (from pH 7.4) in the presence or absence of Compound A (3 μM).
These endogenous proton-activated inward currents were recorded in the presence and absence of Compound J (1 μM) or Compound K (1 μM) using the whole cell configuration of the patch clamp method (voltage clamp mode).
as §2
Coverslips with the cells are transferred to a 15 μl experimental chamber mounted on the stage of an inverted microscope (IMT-2, Olympus) supplied with Nomarski optics. Cells are continuously superfused with extracellular saline at a rate of 2.5 ml/min. After giga-seal formation, the whole cell configuration is attained by suction. The cells are held at a holding voltage of −60 mV and at the start of each experiment the current is continuously measured for 45 s to ensure a stable baseline. Solutions of low pH (<7) are delivered to the chamber through a custom-made gravity-driven flowpipe, the tip of which is placed approximately 50 μm from the cell. Application is triggered when the tubing connected to the flowpipe is compressed by a valve controlled by the Pulse-software. Initially, low pH (in general, pH 6.5) is applied for 5 s every 60 s. The sample interval during application is 5501s. After stable responses are obtained, the extracellular saline as well as the low-pH solution are switched to solutions containing the compound to be tested. The compound is present until responses of a repeatable amplitude are achieved. Current amplitudes are measured at the peak of the responses, and effect of the compounds is calculated as the amplitude at compound equilibrium divided by the amplitude of the current evoked by the pulse just before the compound was included.
The following salt solutions are used: extracellular solution (mM): NaCl (140), KCl (4), CaCl2 (2), MgCl2 (4), HEPES (10, pH 7.4); intracellular solution (mM): KCl (120), KOH (31), MgCl2 (1.785), EGTA (10), HEPES (10, pH 7.2). In general, compounds for testing are dissolved in 50% DMSO at 500 fold the highest concentration used.
Similar findings are shown in FIG. 3 with the human ASIC1a stably transfected in CHO cells. FIG. 3A compares the dose-response relationship between Compound A and amiloride [determined by measuring the area under the curve of the response (total charge transfer) and normalized to the control response]. […] FIGS. 14A and 14B show similar results for Compounds J and K.

For `COc1ccc(F)cc1-c1cc2c(c3c1CCN(C)C3)NC(=O)/C2=N/O` [Compound A, 5-(5-fluoro-2-methoxyphenyl)-6,7,8,9-tetrahydro-3-(hydroxyimino)-8-methyl-1H-pyrrolo[3,2-h]isoquinoline-2(3H)-one], on hASIC1a [1], the “effect on acid-induced inward current, hASIC1a alone” value was “effectively modulates the activity”. In addition, the “effect on acid-induced inward current, hASIC1a and hASIC3 co-expressed” value on heteromeric hASIC1a+3 is given as “effectively modulates the activity”. Moreover, the “relationship between dose and plasma level” value in data set [2] was “linear relationship between dose and plasma exposure”. Besides, the “effect on size of human ASIC1a pH-evoked response (area under the curve, total charge transfer, normalized to control)” value at hASIC1a [3] (-60 mV, pH 6.8 from pH 7.4) is “reduce the human ASIC1a pH-evoked response in a dose-dependent manner”. For the same compound, the “potency relative to amiloride” value on hASIC1a [3] (human ASIC1a pH-evoked response) is “about 100 fold”.

The values above are taken from patent US7718641B2, “Pyrrolo [3,4-H] isoquinoline compounds and methods for modulating gated ion channels” (Aros Pharma ApS, priority 2005, dated 2010).
